A word on the IC50: it is the concentration at which inhibition is half-maximal. As a reminder, the EC50 is the concentration needed to bring the measured effect to its halfway point. Low values mean higher potency in that assay, high ones lower potency in that assay. By CC50 is commonly meant the concentration that lowers cell viability or growth by half. The low end stands for greater toxicity to the cells, the high end for lower toxicity to the cells.

Molecules are shown by their SMILES.

Our source for the IC50, EC50 and CC50 values is patent US8003659B2, “Macrocyclic serine protease inhibitors” (Indenix Pharmaceuticals, Inc., priority 2008, dated 2011).

Series [1] concerns the target T1, HCV NS3-NS4A protease (Hepatitis C virus genotype 1b, UniProt P26663).
T1 construct: made in house
Description: HCV Protease Assay (SensoLyte 620 HCV Protease Assay kit). Type of series: biochemical. As to conditions: 1.2 nM HCV NS3-NS4A protease, 60 min at room temperature, 5% DMSO. The method, then: General procedure: Measurement of the inhibitory effect of compounds on HCV protease activity was performed with the SensoLyte™ 620 HCV Protease Assay kit from AnaSpec, Inc. (San Jose, Calif.) under conditions described by the supplier using 1.2 nM HCV NS3-NS4A protease, which was obtained according to Taremi et al. (Protein Science, 1998, 7, 2143-2149). The compounds were tested at a variety of concentrations in assay buffer containing a final DMSO concentration of 5%. Reactions were allowed to proceed for 60 min at room temperature and fluorescence measurements were recorded with a Tecan Infinity Spectrofluorimeter. The IC50 values were determined from the percent inhibition versus concentration data using a sigmoidal non-linear regression analysis based on four parameters with Tecan Magellan software.

The test system of series [2] is Huh-7 cells containing HCV Con1 subgenomic replicon (GS4.1 cells). Description: HCV Replicon Assay (NS4A ELISA). As to conditions: Hepatitis C virus, Huh-7, 72 hr, NS4A protein by ELISA. In kind it is cell-based. The method, then:
General procedure: Huh-7 cells containing HCV Con1 subgenomic replicon (GS4.1 cells) were grown in Dulbecco's Modified Eagle Medium (DMEM) supplemented with 10% fetal bovine serum (FBS), 2 mM L-glutamine, 110 mg/L sodium pyruvate, 1× non-essential amino acids, 100 U/mL penicillin-streptomycin, and 0.5 mg/mL G418 (Invitrogen). For dose-response testing, the cells were seeded in 96-well plates at 7.5×10^3 cells/well in a volume of 50 μL, and incubated at 37° C./5% CO2. Three hours after plating, 50 μL of ten 2-fold serial dilutions of compounds (highest concentration, 75 μM) were added, and cell cultures were incubated at 37° C./5% CO2 in the presence of 0.5% DMSO. Alternatively, compounds were tested at a single concentration of 15 μM. In all cases, Huh-7 cells lacking the HCV replicon served as negative control. The cells were incubated in the presence of compounds for 72 hr after which they were monitored for expression of the NS4A protein by enzyme-linked immunosorbent assay (ELISA). For this, the plates were then fixed for 1 min with acetone/methanol (1:1, v/v), washed twice with phosphate-buffered saline (PBS), 0.1% Tween 20, blocked for 1 hr at room temperature with TNE buffer containing 10% FBS and then incubated for 2 hr at 37° C. with the anti-NS4A mouse monoclonal antibody A-236 (ViroGen) diluted in the same buffer. After washing three times with PBS, 0.1% Tween 20, the cells were incubated 1 hr at 37° C. with anti-mouse immunoglobulin G-peroxidase conjugate in TNE, 10% FBS. After washing as described above, the reaction was developed with O-phenylenediamine (Zymed). The reaction was stopped after 30 min with 2 NH2SO4, and absorbance was read at 492 nm using Sunrise Tecan spectrophotometer. EC50 values were determined from the % inhibition versus concentration data using a sigmoidal non-linear regression analysis based on four parameters with Tecan Magellan software. When screening at a single concentration, the results were expressed as % inhibition at 15 μM.
A general note: In antiviral work, replicon cells carry a viral genome segment that copies itself.

A short description of series [3]: Cytotoxicity evaluation (Cell Titer 96 AQueous One Solution Cell Proliferation Assay). Type of series: cell-based. As to conditions: human; GS4.1 cells, cellular viability. How it is done:
For cytotoxicity evaluation, GS4.1 cells were treated with compounds as described above and cellular viability was monitored using the Cell Titer 96 AQueous One Solution Cell Proliferation Assay (Promega). CC50 values were determined from the % cytotoxicity versus concentration data with Tecan Magellan software as described above.

T1 sequence (P26663 1027-1208): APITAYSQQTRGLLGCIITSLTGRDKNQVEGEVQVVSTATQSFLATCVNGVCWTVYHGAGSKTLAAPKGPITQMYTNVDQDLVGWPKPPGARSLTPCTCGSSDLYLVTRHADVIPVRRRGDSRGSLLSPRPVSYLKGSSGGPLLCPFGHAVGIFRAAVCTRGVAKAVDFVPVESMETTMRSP

`C#Cc1csc(-c2cc(O[C@H]3C[C@H]4C(=O)N(C)CCCC/C=C\[C@@H]5C[C@@]5(C(=O)NS(=O)(=O)C5CC5)NC(=O)N4C3)c3ccc(OC)c(Cl)c3n2)n1` [Compound G1, (Z)-(4R,6S,15S,17S)-[17-[8-chloro-7-methoxy-2-(4-ethynylthiazol-2-yl)quinolin-4-yloxy]-13-N-methyl-2,14-dioxo-1,3,13-triazatricyclo-[13.3.0.0]octadec-7-en-4-yl]carbonyl(cyclopropyl)sulfonamide] registered an IC50 in series [1] below 1000 nM. Also, in series [2], the EC50 was below 1000 nM. Moreover, the CC50 in series [3] fell in the range of 10000 to 75000 nM.
Take `C#Cc1csc(-c2cc(O[C@H]3C[C@H]4C(=O)N(C)CCCC/C=C\[C@@H]5C[C@@]5(C(=O)NS(=O)(=O)C5(C)CC5)NC(=O)N4C3)c3ccc(OC)c(Cl)c3n2)n1` [Compound G2, (Z)-(4R,6S,15S,17S)-[17-[8-chloro-7-methoxy-2-(4-ethynylthiazol-2-yl)quinolin-4-yloxy]-13-N-methyl-2,14-dioxo-1,3,13-triazatricyclo-[13.3.0.0]octadec-7-en-4-yl]carbonyl(1-methyl-cyclopropyl)sulfonamide]: the half-inhibitory concentration (IC50) in series [1] was below 1000 nM. The compound further had an EC50 in series [2] below 1000 nM. Also, the cytotoxic concentration (CC50) in series [3] was in the range of 10000 to 75000 nM.
`C#Cc1csc(-c2cc(O[C@H]3C[C@H]4C(=O)N(C)CCCC/C=C\[C@@H]5C[C@@]5(C(=O)NS(=O)(=O)C5CC5)NC(=O)N4C3)c3ccc(OC)c(C)c3n2)n1` [Compound G3, (Z)-(4R,6S,15S,17S)-[17-[7-methoxy-8-methyl-2-(4-ethynylthiazol-2-yl)quinolin-4-yloxy]-13-N-methyl-2,14-dioxo-1,3,13-triazatricyclo-[13.3.0.0]octadec-7-en-4-yl]carbonyl(cyclopropyl)sulfonamide] yielded an IC50 in series [1] below 1000 nM. For the same compound, in series [2], the EC50 was below 1000 nM. Further, the 50% cytotoxic concentration (CC50) in series [3] lay in the range of 10000 to 75000 nM.
In series [1], `C#Cc1csc(-c2cc(O[C@H]3C[C@H]4C(=O)N(C)CCCC/C=C\[C@@H]5C[C@@]5(C(=O)NS(=O)(=O)C5(C)CC5)NC(=O)N4C3)c3ccc(OC)c(C)c3n2)n1` [Compound G4, (Z)-(4R,6S,15S,17S)-[17-[7-methoxy-8-methyl-2-(4-ethynylthiazol-2-yl)quinolin-4-yloxy]-13-N-methyl-2,14-dioxo-1,3,13-triazatricyclo-[13.3.0.0]octadec-7-en-4-yl]carbonyl (1-methylcyclopropyl)sulfonamide] yielded an IC50 below 1000 nM. The half-maximal effective concentration (EC50) in series [2] was below 1000 nM. The CC50 in series [3] was in the range of 10000 to 75000 nM.
In the case of `COc1ccc2c(O[C@H]3C[C@H]4C(=O)N(C)CCCC/C=C\[C@@H]5C[C@@]5(C(=O)NS(=O)(=O)C5CC5)NC(=O)N4C3)cc(-c3csc(C(F)(F)F)n3)nc2c1Cl` [Compound O1, (Z)-(4R,6S,15S,17S)-[17-[8-chloro-7-methoxy-2-(2-trifluoromethylthiazol-4-yl)quinolin-4-yloxy]-13-N-methyl-2,14-dioxo-1,3,13-triazatricyclo-[13.3.0.0]octadec-7-en-4-yl]carbonyl-(cyclopropyl)sulfonamide], the concentration for half-maximal inhibition (IC50) in series [1] is below 1000 nM. This compound had an EC50 in series [2] below 1000 nM. This compound showed a CC50 in series [3] of 10000 to 75000 nM.
`COc1ccc2c(O[C@H]3C[C@H]4C(=O)N(C)CCCC/C=C\[C@@H]5C[C@@]5(C(=O)NS(=O)(=O)C5(C)CC5)NC(=O)N4C3)cc(-c3csc(C(F)(F)F)n3)nc2c1Cl` [Compound O2, (Z)-(4R,6S,15S,17S)-[17-[8-chloro-7-methoxy-2-(2-trifluoromethylthiazol-4-yl)quinolin-4-yloxy]-13-N-methyl-2,14-dioxo-1,3,13-triazatricyclo-[13.3.0.0]octadec-7-en-4-yl]carbonyl-(1-methylcyclopropyl)sulfonamide] showed an IC50 in series [1] below 1000 nM. In addition, the EC50 in series [2] was below 1000 nM. The same compound showed a CC50 in series [3] of 10000 to 75000 nM.
In series [1], `COc1ccc2c(O[C@H]3C[C@H]4C(=O)N(C)CCCC/C=C\[C@@H]5C[C@@]5(C(=O)NS(=O)(=O)C5CC5)NC(=O)N4C3)cc(-c3csc(C(F)(F)F)n3)nc2c1C` [Compound O3, (Z)-(4R,6S,15S,17S)-[17-[7-methoxy-8-methyl-2-(2-trifluoromethylthiazol-4-yl)quinolin-4-yloxy]-13-N-methyl-2,14-dioxo-1,3,13-triazatricyclo-[13.3.0.0]octadec-7-en-4-yl]carbonyl-(cyclopropyl)sulfonamide] returned a concentration for half-maximal inhibition (IC50) below 1000 nM. The EC50 in series [2] is below 1000 nM. This compound also displayed a CC50 in series [3] of 10000 to 75000 nM.
In the case of `COc1ccc2c(O[C@H]3C[C@H]4C(=O)N(C)CCCC/C=C\[C@@H]5C[C@@]5(C(=O)NS(=O)(=O)C5(C)CC5)NC(=O)N4C3)cc(-c3csc(C(F)(F)F)n3)nc2c1C` [Compound O4, (Z)-(4R,6S,15S,17S)-[17-[7-methoxy-8-methyl-2-(2-trifluoromethylthiazol-4-yl)quinolin-4-yloxy]-13-N-methyl-2,14-dioxo-1,3,13-triazatricyclo-[13.3.0.0]octadec-7-en-4-yl]carbonyl-(1-methylcyclopropyl)sulfonamide], the IC50 in series [1] was below 1000 nM. In series [2], the EC50 was below 1000 nM. The CC50 in series [3] is above 75000 nM.
